# Measured values taken from patent US7446122B2, “Substituted indole derivatives” (Cephalon, Inc., priority 2003, dated 2008).
# Tests used:
# [1] = tested on: Daudi human Burkitt Lymphoma derived tumors; assay: Daudi lymphoma murine xenograft model, efficacy; type: in vivo, male SCID mice; conditions: for mean tumor volume at termination of the study: daily Monday to Friday for two weeks, control 1583 mm^3
# Description: Male SCID mice, 6-8 weeks of age, obtained from Simonsen Laboratories, Inc. (Gilroy, Calif.) were housed in groups of five.
# The Daudi human Burkitt Lymphoma cells were obtained from American Type Culture Collection and were inoculated subcutaneously (1.0×10^7 cells/mouse) on the flanks of SCID mice. After the tumors reached approximately 100 mm^3 treatment was initiated.
# Body weights and tumor volume of all mice were measured and recorded twice weekly. Tumors were measured in three dimensions and volume calculated using the formula: […]. Time for the tumors (days) to grow to 4× and 8× the initial volume at dosing were assessed. Study compounds were administered at 125 or 250 mg/kg/day (M-F) via oral gavage until the end of the study.
# The efficacy of chlorambucil (2 and 3 mg/kg/d), (R-etodoalc) (400 mg/kg/d) and compound 47 (250 mg/kg/d), compound 26 (250 mg/kg/d), and compound 1 (125 mg/kg/d) against Daudi derived tumors in male SCID mice were studied. R-etodolac and compounds 1, 26 and 47 were prepared in sesame oil. Both chlorambucil (ip, 0.1 ml) and compounds of the invention (per os [p.o.], 0.31 ml) were dosed daily (Monday to Friday) for two weeks. SDX-101 (0.31 ml) was dosed p.o. daily until the end of the study. […] However, all treated mice recovered after Day 2 and maintained their weights. There was no body weight loss observed in other treatment groups. At termination of the study, the control group mean tumor volume was 1583 mm^3. The mean tumor volume of chlorambucil treated groups were 864 and 766 mm^3 with 2 and 3 mg/kg/d chlorambucil treatment, respectively. The mean tumor volume of R-etodolac and compounds 1, […] and 47 were 802, 996, 1011, and 1157 mm^3 with compounds 47, 36, 1 and R-etodolac treatment, respectively. […] At termination of the study, tumor samples along with liver, kidney, and spleen samples from each group were collected and fixed in 10% buffered formalin for histopathology.
# COX-1 = biological target: T1, COX-1 (Homo sapiens, UniProt P23219); assay: Cox-1 assay: PGE2 formation in human platelets; type: cell-based; conditions: compounds are screened at 10 μM
# T1 construct: endogenous in cells; host or cells: human platelets
# T1 sequence (P23219 24-599): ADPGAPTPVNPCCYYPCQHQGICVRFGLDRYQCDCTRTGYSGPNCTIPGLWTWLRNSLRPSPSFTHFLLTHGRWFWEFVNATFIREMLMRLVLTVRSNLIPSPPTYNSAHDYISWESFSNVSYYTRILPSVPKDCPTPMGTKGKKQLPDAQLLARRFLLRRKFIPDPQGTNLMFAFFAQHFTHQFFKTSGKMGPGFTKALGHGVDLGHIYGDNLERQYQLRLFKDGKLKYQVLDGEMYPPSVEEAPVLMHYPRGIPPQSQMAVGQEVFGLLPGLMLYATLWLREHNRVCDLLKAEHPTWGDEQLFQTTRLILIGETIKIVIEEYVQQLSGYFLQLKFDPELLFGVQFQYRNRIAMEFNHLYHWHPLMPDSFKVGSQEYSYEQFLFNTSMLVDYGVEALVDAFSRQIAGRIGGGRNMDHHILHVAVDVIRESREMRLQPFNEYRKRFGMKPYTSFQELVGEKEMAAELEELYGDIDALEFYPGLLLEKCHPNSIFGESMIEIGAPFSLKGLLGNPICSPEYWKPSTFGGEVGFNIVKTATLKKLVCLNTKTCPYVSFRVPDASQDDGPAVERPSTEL
# Description: Test compound and/or vehicle is incubated with human platelets (10^8/ml) containing the phospholipase inhibitor MLnFP (100 μM) for 15 minutes at 37° C. Arachidonic acid (100 μM) is then added for a further 15 minute incubation period. The reaction is stopped by addition of 1 N HCl and neutralized with 1N NaOH. PGE2 levels in the supernatant are determined using the Amersham EIA kit. […]
# [2] = biological target: T2, Cyclooxygenase-2 (human recombinant, expressed in Sf9 cell) (Homo sapiens, UniProt P35354); assay: Cox-2 assay: human recombinant cyclooxygenase-2, PGE2 by EIA; type: biochemical; conditions: human recombinant enzyme; compounds are screened at 10 μM
# T2 construct: purchased Cayman 60122; host or cells: Sf9 cell
# T2 sequence (P35354 18-604): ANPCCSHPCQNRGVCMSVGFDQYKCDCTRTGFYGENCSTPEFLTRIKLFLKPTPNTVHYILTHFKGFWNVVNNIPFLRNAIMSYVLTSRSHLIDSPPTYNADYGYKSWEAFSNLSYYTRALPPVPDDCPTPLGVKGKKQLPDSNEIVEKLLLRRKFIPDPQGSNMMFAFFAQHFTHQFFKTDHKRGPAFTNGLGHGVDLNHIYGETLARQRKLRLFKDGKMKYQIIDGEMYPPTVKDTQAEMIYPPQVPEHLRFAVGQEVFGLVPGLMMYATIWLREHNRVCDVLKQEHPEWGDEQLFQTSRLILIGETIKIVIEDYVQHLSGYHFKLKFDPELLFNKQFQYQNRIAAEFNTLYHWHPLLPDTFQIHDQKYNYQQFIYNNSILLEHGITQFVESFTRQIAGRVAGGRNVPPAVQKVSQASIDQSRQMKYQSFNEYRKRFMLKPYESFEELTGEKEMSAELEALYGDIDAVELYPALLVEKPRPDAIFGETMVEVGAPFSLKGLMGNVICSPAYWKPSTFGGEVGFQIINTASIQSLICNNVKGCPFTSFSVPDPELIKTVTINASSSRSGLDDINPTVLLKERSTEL
# Description: Test compound and/or vehicle is pre-incubated with 0.11 U cyclooxygenase-2, 1 mM reduced glutathione (GSH), 500 μM phenol and 1 μM hematin for 15 minutes at 37° C. The reaction is initiated by addition of 0.3 μM arachidonic acid as substrate in Tris-HCl pH 7.7 and terminated after a 5 minute incubation at 37° C. by addition of 1N HCl. Following centrifugation, substrate conversion to PGE2 is measured by an Amersham EIA kit. Compounds are screened at 10 μM. […] J. Physiol.
# [3] = tested on: prostate cancer cell line (LNCaP); assay: Cell cytotoxicity, MTT assay, LNCaP; type: cell-based; conditions: Homo sapiens, 72 h, three days incubation
# Description: (§1) Normal prostate cells (PREC, Cambrex East Rutherford N.J.), prostate cancer cell line (LNCaP, ATCC), PBL (peripheral blood leukocytes-buffy coat San Diego Blood Bank), and primary CLL cells were incubated for one to two days in RPMI-1640 and 10% FBS (fetal bovine serum). They were plated in 96-well plates at 100,000 cells/well. Titrated concentrations of the compound to be tested were added to the culture medium. The cells were incubated three days at 37° C., 5% CO2. Viability of the cells was assayed by standard MTT assay. Each drug concentration was done in duplicate. MTT assay: 10 μl of 12 mM 3,[4,5-dimethylthiazol-2-yl]-2,5-diphenyltetrazolium bromide (MTT) (SIGMA) was added to each well. The cells were incubated at 37° C., 5% CO2 for 4 hours. 100 μl of 20% SDS, 0.015M HCl was added to each well and the cells were incubated overnight. The plates were read at absorbance 595 nm.
# primary CLL cells = assay: Cell cytotoxicity, MTT assay, primary CLL cells; type: cell-based; conditions: 72 h, three days incubation
# Description: as §1
# [4] = tested on: PBL (peripheral blood leukocytes); assay: Cell cytotoxicity, MTT assay, PBL; type: cell-based; conditions: Leukocyte, 72 h, three days incubation
# Description: as §1
compound,measurement,setting,value
"O=C(O)CCCc1ccc(N(CCCl)CCCl)cc1 [Chlorambucil, chlorambucil, reference compound]",mean tumor volume at termination of the study,[1]; chlorambucil 2 mg/kg/d ip,864 mm^3
same,mean tumor volume at termination of the study,[1]; chlorambucil 3 mg/kg/d ip,766 mm^3
same,4× Growth,"[1]; time for the tumors to grow to 4× the initial volume at dosing, control 8.9 d",16 days
same,8× Growth,"[1]; time for the tumors to grow to 8× the initial volume at dosing, control 14.5 d",21 days
CCc1cc(-c2ccc(F)cc2)cc2c3c([nH]c12)C(CC)(CCO)OCC3 (stereo not drawn) [Compound 7],inhibition at 10 µM,COX-1,94%
same,inhibition at 10 µM,[2],99%
same,IC50,[3],12 µM
CCc1cc(-c2ccc3c(c2)OCO3)cc2c3c([nH]c12)C(CC)(CCO)OCC3 (stereo not drawn) [Compound 9],inhibition at 10 µM,COX-1,88%
same,inhibition at 10 µM,[2],90%
same,IC50,[3],10 µM
"CCC1(CCO)OCCc2c1[nH]c1ccccc21 (stereo not drawn) [Compound 22, (1-ETHYL-1,3,4,9-TETRAHYDRO-PYRANO[3,4-b]INDOL-1-YL)-ETHANOL]",IC50,[3],163 µM
"CCC1(CCO)OCCc2c1[nH]c1ccc(OC)cc21 (stereo not drawn) [Compound 23, 2-(1-ETHYL-6-METHOXY-1,3,4,9-TETRAHYDRO-PYRANO[3,4-b]INDOL-1-YL)-ETHANOL]",IC50,[3],70 µM
"CCC1(CCO)OCCc2c1[nH]c1c(F)cccc21 (stereo not drawn) [Compound 26, 2-(1-ETHYL-8-FLUORO-1,3,4,9-TETRAHYDRO-PYRANO[3,4-b]INDOL-1-YL)-ETHANOL]",IC50,[3],95 µM
"CCC1(CCO)OCCc2c1[nH]c1c(Br)cccc21 (stereo not drawn) [Compound 28, 2-(8-BROMO-1-ETHYL-1,3,4,9-TETRAHYDRO-PYRANO[3,4-b]INDOL-1-YL)-ETHANOL]",IC50,[3],25 µM
"CCCC1(CCO)OCCc2c1[nH]c1c(CC)cccc21 (stereo not drawn) [Compound 30, 2-(8-ETHYL-1-PROPYL-1,3,4,9-TETRAHYDRO-PYRANO[3,4-b]INDOL-1-YL)-ETHANOL]",IC50,[3],100 µM
"CCc1cccc2c3c([nH]c12)C(CCO)(C(C)C)OCC3 (stereo not drawn) [Compound 31, 2-(8-ETHYL-1-ISOPROPYL-1,3,4,9-TETRAHYDRO-PYRANO[3,4-b]INDOL-1-YL)-ETHANOL]",IC50,[3],37 µM
same,IC50,primary CLL cells,244 µM
"CCc1cccc2c3c([nH]c12)C(CCO)(c1ccccc1)OCC3 (stereo not drawn) [Compound 32, 2-(8-ETHYL-1-PHENYL-1,3,4,9-TETRAHYDRO-PYRANO[3,4-b]INDOL-1-YL)-ETHANOL]",IC50,[3],15 µM
same,IC50,primary CLL cells,250 µM
CCc1cccc2c3c([nH]c12)C(CC)(CC(=O)NC)OCC3 (stereo not drawn) [Compound 33],IC50,[3],132 µM
same,IC50,primary CLL cells,98 µM
"CCc1cccc2c3c([nH]c12)C1(CCC(CO)CC1)OCC3 (stereo not drawn) [Compound 34, [8′-ETHYL-4′,9′-DIHYDRO-3′H-SPIRO(CYCLOHEXANE-1,1′-PYRANO[3,4-b]INDOL)-4-YL]-METHANOL]",IC50,[3],20 µM
"CCC1(CCO)OCCc2c1[nH]c1c(C(F)(F)F)cccc21 (stereo not drawn) [Compound 37, 2-(1-ETHYL-8-TRIFLUOROMETHYL-1,3,4,9-TETRAHYDRO-PYRANO[3,4-b]INDOL-1-YL)-ETHANOL]",IC50,[3],60 µM
"CCC1(CCO)OCCc2c1[nH]c1cccc(Cl)c21 (stereo not drawn) [Compound 38, 2-(5-CHLORO-1-ETHYL-1,3,4,9-TETRAHYDRO-PYRANO[3,4-b]INDOL-1-YL)-ETHANOL]",IC50,[3],23 µM
same,IC50,[4],73 µM
"CCC1(CCO)OCCc2c1[nH]c1cccc(F)c21 (stereo not drawn) [Compound 39, 2-(1-ETHYL-5-FLUORO-1,3,4,9-TETRAHYDRO-PYRANO[3,4-b]INDOL-1-YL)-ETHANOL]",IC50,[3],46 µM
same,IC50,[4],120 µM
"CCC1(CCO)OCCc2c1[nH]c1ccc(F)cc21 (stereo not drawn) [Compound 40, 2-(1-ETHYL-6-FLUORO-1,3,4,9-TETRAHYDRO-PYRANO[3,4-b]INDOL-1-YL)-ETHANOL]",IC50,[3],80 µM
same,IC50,primary CLL cells,185 µM
"CCC1(CCO)OCCc2c1[nH]c1ccc(Cl)cc21 (stereo not drawn) [Compound 41, 2-(6-CHLORO-1-ETHYL-1,3,4,9-TETRAHYDRO-PYRANO[3,4-b]INDOL-1-YL)-ETHANOL]",IC50,[3],51 µM
same,IC50,primary CLL cells,110 µM
"CCC1(CCO)OCCc2c1[nH]c1cc(F)ccc21 (stereo not drawn) [Compound 43, 2-(1-ETHYL-7-FLUORO-1,3,4,9-TETRAHYDRO-PYRANO[3,4-b]INDOL-1-YL)-ETHANOL]",IC50,[3],77 µM
"CCC1(CCO)OCCc2c1[nH]c1cc(Cl)ccc21 (stereo not drawn) [Compound 44, 2-(7-CHLORO-1-ETHYL-1,3,4,9-TETRAHYDRO-PYRANO[3,4-b]INDOL-1-YL)-ETHANOL]",IC50,[3],60 µM
CCC1(CCO)OCCc2c1[nH]c1c(C)cc(C)cc21 (stereo not drawn) [Compound 45],IC50,[3],8 µM
same,IC50,[4],90 µM
CCc1cccc2c3c([nH]c12)C(CC)(CC(=O)N(C)C)OCC3 (stereo not drawn) [Compound 48],IC50,[3],60 µM
same,IC50,primary CLL cells,240 µM
"CCc1c(Br)ccc2c3c([nH]c12)C(CC)(CCO)OCC3 (stereo not drawn) [Compound 51, 2-(7-BROMO-1,8-DIETHYL-1,3,4,9-TETRAHYDROPYRANO[3,4-b]INDOL-1-YL)ETHANOL]",IC50,[3],10 µM
CCc1cc(-c2cc3ccccc3s2)cc2c3c([nH]c12)C(CC)(CCO)OCC3 (stereo not drawn) [Compound 52],inhibition at 10 µM,COX-1,78%
same,inhibition at 10 µM,[2],97%
same,IC50,[3],9 µM
CCc1cc(-c2ccc(C)cc2)cc2c3c([nH]c12)C(CC)(CCO)OCC3 (stereo not drawn) [Compound 53],inhibition at 10 µM,COX-1,90%
same,inhibition at 10 µM,[2],96%
same,IC50,[3],11 µM
"CCC1(CCO)OCCc2c1[nH]c1c(C(C)C)cc(Br)cc21 (stereo not drawn) [Compound 54, 2-(6-BROMO-1-ETHYL-1,3,4,9-TETRAHYDRO-8-ISOPROPYLPYRANO[3,4-b]INDOL-1-yl)ETHANOL]",IC50,[3],7 µM
"CCOC(=O)CCc1cc(C(C)C)c2[nH]c3c(c2c1)CCOC3(CC)CCO (stereo not drawn) [Compound 55, ETHYL 3-(1-ETHYL-1,3,4,9-TETRAHYDRO-1-(2-HYDROXYETHYL)-8-ISOPROPYLPYRANO[3,4-B]INDOL-6-YL)PROPANOATE]",IC50,[3],18 µM
"CCC1(CCO)OCCc2c1[nH]c1c(C(C)C)cc(CCC(=O)O)cc21 (stereo not drawn) [Compound 56, 3-(1-ETHYL-1,3,4,9-TETRAHYDRO-1-(2-HYDROXYETHYL)-8-ISOPROPYLPYRANO[3,4-b]INDOL-6-YL)PROPANOIC ACID]",IC50,[3],235 µM
"CCC1(CCO)OCCc2c1[nH]c1c(C(C)C)cc(CCCO)cc21 (stereo not drawn) [Compound 57, 3-(1-ETHYL-1,3,4,9-TETRAHYDRO-1-(2-HYDROXYETHYL)-8-ISOPROPYLPYRANO[3,4-B]INDOL-6-YL)PROPAN-1-OL]",IC50,[3],110 µM
